Experimental data as given in US8541470B2, “Topical pharmaceutical formulation” (Futura Medical Developments Limited, priority 2007, dated 2013).
Structures can show the parent of a compound that is named as a salt. Blank lines part the entries; values can stand above or below the molecule they belong to.

Columns and labels:
[1] = saturated solubility in solvents; type: physicochemical
[2] = topical regional use; relative to piroxicam; cited from earlier work

saturated solubility in polyethylene glycol ([1]; solvent polyethylene glycol): 11.18 % w/w | saturated solubility in propanol or iso-propanol ([1]; solvent propanol or iso-propanol): 3-4% | saturated solubility in pure ethanol ([1]; solvent pure ethanol): 5 % w/w
Structure (SMILES): O=C(O)Cc1ccccc1Nc1c(Cl)cccc1Cl [diclofenac acid]

Structure (SMILES): O=C(O)Cc1ccccc1Nc1c(Cl)cccc1Cl [diclofenac]
efficacy index, factor greater than that for piroxicam [2]: ~1000

saturated solubility in propylene glycol ([1]; solvent propylene glycol): approximately 50 % w/w
Structure (SMILES): O=C(O)Cc1ccccc1Nc1c(Cl)cccc1Cl [sodium salt of diclofenac acid, diclofenac sodium]
